Results from PubChem BioAssay AID248 (DTP/NCI, 2004).
Toxic doses and inconclusive results are not listed.

System: L1210 leukemia ip in BDF1 mice, survival T/C
Assay: NCI In Vivo Anticancer Drug Screen. Data for tumor model L1210 Leukemia (intraperitoneal) in B6D2F1 (BDF1) mice
Conditions: endpoint: mean survival time, higher = longer survival
How it was run: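 Ratio derived from survival: compound-dosed mice over vehicle-dosed mice, all bearing a transplantable tumor.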

[1] = dose: 100.0 mg/kg/injection, schedule: Q04DX002 (ip), vehicle: Klucel (hydroxypropylcellulose) (HPC)
[2] = dose: 200.0 mg/kg/injection, schedule: Q04DX002 (ip), vehicle: Klucel (hydroxypropylcellulose) (HPC)
[3] = dose: 400.0 mg/kg/injection, schedule: Q04DX002 (ip), vehicle: Klucel (hydroxypropylcellulose) (HPC)
[4] = dose: 100.0 mg/kg/injection, schedule: Q01DX001 (ip), vehicle: saline
[5] = dose: 200.0 mg/kg/injection, schedule: Q01DX001 (ip), vehicle: saline
[6] = dose: 400.0 mg/kg/injection, schedule: Q01DX001 (ip), vehicle: saline
[7] = dose: 100.0 mg/kg/injection, schedule: Q04DX003 (ip), vehicle: saline with Tween-80
[8] = dose: 200.0 mg/kg/injection, schedule: Q04DX003 (ip), vehicle: saline with Tween-80
[9] = dose: 400.0 mg/kg/injection, schedule: Q04DX003 (ip), vehicle: saline with Tween-80

In the case of `Cc1ccccc1N=C(N)Nc1ccccc1C`, the T/C (dose: 2.5 mg/kg/injection, schedule: Q01DX009 (ip), vehicle: saline with Tween-80) is reported as 103 % of control, the T/C (dose: 5.0 mg/kg/injection, schedule: Q01DX001 (ip), vehicle: carboxymethylcellulose (CMC)) is reported as 108 % of control and the T/C (dose: 5.0 mg/kg/injection, schedule: Q01DX009 (ip), vehicle: saline with Tween-80) is reported as 97 % of control. The T/C (dose: 6.25 mg/kg/injection, schedule: Q01DX009 (ip), vehicle: other) was 95 % of control, the T/C (dose: 6.25 mg/kg/injection, schedule: Q04DX003 (ip), vehicle: other) was 96 % of control and the T/C (dose: 10.0 mg/kg/injection, schedule: Q01DX001 (ip), vehicle: carboxymethylcellulose (CMC)) was 114 % of control. The T/C (dose: 10.0 mg/kg/injection, schedule: Q01DX009 (ip), vehicle: saline with Tween-80) was 97 % of control, the T/C (dose: 12.5 mg/kg/injection, schedule: Q01DX001 (ip), vehicle: other) was 96 % of control and the T/C (dose: 12.5 mg/kg/injection, schedule: Q01DX009 (ip), vehicle: other) was 95 % of control. For the same compound, the T/C (dose: 12.5 mg/kg/injection, schedule: Q04DX003 (ip), vehicle: other) was 93 % of control, the T/C (dose: 20.0 mg/kg/injection, schedule: Q01DX001 (ip), vehicle: carboxymethylcellulose (CMC)) was 117 % of control and the T/C (dose: 25.0 mg/kg/injection, schedule: Q01DX001 (ip), vehicle: other) was 96 % of control. The T/C (dose: 25.0 mg/kg/injection, schedule: Q01DX009 (ip), vehicle: other) was 94 % of control and the T/C (dose: 25.0 mg/kg/injection, schedule: Q04DX003 (ip), vehicle: other) was 100 % of control.
With `C[C@H](CCC(=O)O)[C@H]1CC[C@H]2[C@@H]3[C@H](O)C[C@@H]4C[C@H](O)CC[C@]4(C)[C@H]3C[C@H](O)[C@]12C` (tested in a mixture with another compound) the T/C (dose: 37.5 mg/kg/injection, schedule: Q01DX009 (ip), vehicle: saline) was 107 % of control, the T/C (dose: 50.0 mg/kg/injection, schedule: Q04DX003 (ip), vehicle: other) was 105 % of control and the T/C (dose: 75.0 mg/kg/injection, schedule: Q01DX009 (ip), vehicle: saline) was 111 % of control. The T/C (dose: 77.0 mg/kg/injection, schedule: Q01DX Z (ip), vehicle: methylcellulose (MC)) was 105 % of control, the T/C (dose: 80.0 mg/kg/injection, schedule: Q01DX009 (ip), vehicle: other) was 97 % of control and the T/C (dose: 80.0 mg/kg/injection, schedule: Q01DX009 (ip), vehicle: saline) was 115 % of control. For the same compound, the T/C (dose: 80.0 mg/kg/injection, schedule: Q01DX Z (ip), vehicle: saline) was 111 % of control, the T/C (dose: 100.0 mg/kg/injection, schedule: Q01DX001 (ip), vehicle: alcohol) was 96 % of control and the T/C (dose: 100.0 mg/kg/injection, schedule: Q04DX003 (ip), vehicle: other) was 97 % of control. For the same compound, the T/C (dose: 116.0 mg/kg/injection, schedule: Q01DX Z (ip), vehicle: methylcellulose (MC)) was 115 % of control, the T/C (dose: 120.0 mg/kg/injection, schedule: Q01DX009 (ip), vehicle: other) was 118 % of control and the T/C (dose: 120.0 mg/kg/injection, schedule: Q01DX Z (ip), vehicle: saline) was 152 % of control. For the same compound, the T/C (dose: 150.0 mg/kg/injection, schedule: Q01DX009 (ip), vehicle: saline) was 88 % of control, the T/C (dose: 180.0 mg/kg/injection, schedule: Q01DX009 (ip), vehicle: other) was 115 % of control and the T/C (dose: 180.0 mg/kg/injection, schedule: Q01DX Z (ip), vehicle: methylcellulose (MC)) was 115 % of control. The T/C (dose: 180.0 mg/kg/injection, schedule: Q01DX Z (ip), vehicle: saline) was 179 % of control, the T/C (dose: 198.0 mg/kg/injection, schedule: Q04DX003 (ip), vehicle: other) was 115 % of control and the T/C (dose: 200.0 mg/kg/injection, schedule: Q01DX001 (ip), vehicle: alcohol) was 92 % of control. The T/C (dose: 200.0 mg/kg/injection, schedule: Q04DX003 (ip), vehicle: other) was 105 % of control, the T/C (dose: 263.0 mg/kg/injection, schedule: Q01DX Z (ip), vehicle: methylcellulose (MC)) was 96 % of control and the T/C (dose: 270.0 mg/kg/injection, schedule: Q01DX Z (ip), vehicle: saline) was 114 % of control.
`c1ccc(C2=C(c3ccccc3)SC(c3ccccc3)=C(c3ccccc3)S2)cc1` was tested, and the T/C (dose: 100.0 mg/kg/injection, schedule: Q04DX003 (ip), vehicle: saline) was 102 % of control, the T/C (dose: 200.0 mg/kg/injection, schedule: Q04DX003 (ip), vehicle: saline) was 98 % of control and the T/C (dose: 400.0 mg/kg/injection, schedule: Q04DX003 (ip), vehicle: saline) was 104 % of control.
For `CC/C(N)=C\C(=O)c1ccccc1`, the T/C [1] was 102 % of control, the T/C [2] was 105 % of control and the T/C [3] was 98 % of control.
`CCOP(=O)(OCC)N1C(C)C1c1ccccc1` (stereo not given) was tested, and the T/C (dose: 25.0 mg/kg/injection, schedule: Q04DX003 (sc), vehicle: carboxymethylcellulose (CMC)) was 100 % of control, the T/C (dose: 50.0 mg/kg/injection, schedule: Q04DX003 (sc), vehicle: carboxymethylcellulose (CMC)) was 104 % of control and the T/C (dose: 100.0 mg/kg/injection, schedule: Q04DX003 (sc), vehicle: carboxymethylcellulose (CMC)) was 112 % of control.
With `CCOc1cc(/C=N/N2CCN(/N=C/c3ccc(O)c(OCC)c3)CC2)ccc1O` the T/C [4] was 117 % of control, the T/C [5] was 94 % of control and the T/C [6] was 88 % of control.
With `O=C(CC(c1ccccc1)c1c(O)c2ccccc2oc1=O)c1ccccc1` (stereo not given) the T/C (dose: 0.5 mg/kg/injection, schedule: Q01DX009 (ip), vehicle: saline with Tween-80) was 95 % of control, the T/C (dose: 1.0 mg/kg/injection, schedule: Q01DX009 (ip), vehicle: saline with Tween-80) was 97 % of control and the T/C (dose: 2.0 mg/kg/injection, schedule: Q01DX009 (ip), vehicle: saline with Tween-80) was 100 % of control. For the same compound, the T/C (dose: 4.0 mg/kg/injection, schedule: Q01DX009 (ip), vehicle: saline with Tween-80) was 104 % of control, the T/C [7] was 94 % of control and the T/C [8] was 91 % of control. For the same compound, the T/C [9] was 101 % of control.
For `CSCCC(NC(=O)CN)C(=O)O` (stereo not given), the T/C [4] was 96 % of control, the T/C [5] was 104 % of control and the T/C [6] was 102 % of control.
In the case of `CC(N)c1ccc(OCCOc2ccc(C(C)(C)CC(C)(C)C)cc2)cc1` (stereo not given), the T/C (dose: 6.25 mg/kg/injection, schedule: Q01DX009 (ip), vehicle: Klucel (hydroxypropylcellulose) (HPC)) is reported as 93 % of control, the T/C (dose: 12.5 mg/kg/injection, schedule: Q01DX009 (ip), vehicle: Klucel (hydroxypropylcellulose) (HPC)) is reported as 94 % of control and the T/C (dose: 25.0 mg/kg/injection, schedule: Q01DX009 (ip), vehicle: Klucel (hydroxypropylcellulose) (HPC)) is reported as 93 % of control. The T/C (dose: 100.0 mg/kg/injection, schedule: Q04DX003 (ip), vehicle: Klucel (hydroxypropylcellulose) (HPC)) was 96 % of control and the T/C (dose: 200.0 mg/kg/injection, schedule: Q04DX003 (ip), vehicle: Klucel (hydroxypropylcellulose) (HPC)) was 95 % of control.
With `CC(=O)Oc1c(-c2ccccc2)cc([N+](=O)[O-])cc1[N+](=O)[O-]` the T/C (dose: 50.0 mg/kg/injection, schedule: Q04DX002 (ip), vehicle: Klucel (hydroxypropylcellulose) (HPC)) was 97 % of control, the T/C [1] was 103 % of control and the T/C [2] was 94 % of control.
`C/C=C(\Br)C(=O)Nc1ccc(OCC)cc1` was tested, and the T/C [4] was 100 % of control and the T/C [5] was 105 % of control.
In the case of `Cc1cc(N(CCCl)CCCl)ccc1C=Nc1ccc2c(c1)nc(C)n2C`, the T/C [1] is reported as 93 % of control, the T/C [2] is reported as 112 % of control and the T/C [3] is reported as 97 % of control.
For `C1CCC(C2CC2)CC1`, the T/C (dose: 50.0 mg/kg/injection, schedule: Q01DX009 (ip), vehicle: saline) was 97 % of control, the T/C (dose: 100.0 mg/kg/injection, schedule: Q01DX009 (ip), vehicle: saline) was 94 % of control and the T/C (dose: 200.0 mg/kg/injection, schedule: Q01DX009 (ip), vehicle: saline) was 94 % of control.
In the case of `O=Cc1ccc2c(c1)C(=O)c1ccccc1C2=O`, the T/C [1] is reported as 90 % of control, the T/C [2] is reported as 97 % of control and the T/C [3] is reported as 93 % of control.
In the case of `CCCCOc1cc(C(=O)NCCN(CC)CC)c2ccccc2n1`, the T/C (dose: 6.25 mg/kg/injection, schedule: Q04DX003 (ip), vehicle: saline) is reported as 98 % of control, the T/C (dose: 12.5 mg/kg/injection, schedule: Q04DX003 (ip), vehicle: saline) is reported as 98 % of control and the T/C (dose: 25.0 mg/kg/injection, schedule: Q04DX003 (ip), vehicle: saline) is reported as 107 % of control.
With `O=C(O)c1cscc1Cc1ccccc1` the T/C [7] was 90 % of control, the T/C [8] was 94 % of control and the T/C [9] was 95 % of control.
For `CCOC(=O)CC(C(C)=O)P(=O)(OCC)OCC` (stereo not given), the T/C (dose: 50.0 mg/kg/injection, schedule: Q01DX009 (ip), vehicle: saline + alcohol) was 96 % of control, the T/C (dose: 100.0 mg/kg/injection, schedule: Q01DX009 (ip), vehicle: saline + alcohol) was 96 % of control and the T/C (dose: 200.0 mg/kg/injection, schedule: Q01DX009 (ip), vehicle: saline + alcohol) was 92 % of control.
